Data from patent US4897397A, “Aryl-alkynoic, alkenoic or alkanoic compounds and compositions useful as antiallergy and anti-inflammatory agents” (Schering Corporation, priority 1988, dated 1990).

Target: T1, 5-Lipoxygenase (Mus musculus, UniProt P48999)
T1 construct: Use the interleukin-3-dependent murine mast cell clone, MC-9; endogenous in cells; host or cells: MC-9 murine mast cell clone (interleukin-3-dependent)
T1 sequence (P48999 1-674): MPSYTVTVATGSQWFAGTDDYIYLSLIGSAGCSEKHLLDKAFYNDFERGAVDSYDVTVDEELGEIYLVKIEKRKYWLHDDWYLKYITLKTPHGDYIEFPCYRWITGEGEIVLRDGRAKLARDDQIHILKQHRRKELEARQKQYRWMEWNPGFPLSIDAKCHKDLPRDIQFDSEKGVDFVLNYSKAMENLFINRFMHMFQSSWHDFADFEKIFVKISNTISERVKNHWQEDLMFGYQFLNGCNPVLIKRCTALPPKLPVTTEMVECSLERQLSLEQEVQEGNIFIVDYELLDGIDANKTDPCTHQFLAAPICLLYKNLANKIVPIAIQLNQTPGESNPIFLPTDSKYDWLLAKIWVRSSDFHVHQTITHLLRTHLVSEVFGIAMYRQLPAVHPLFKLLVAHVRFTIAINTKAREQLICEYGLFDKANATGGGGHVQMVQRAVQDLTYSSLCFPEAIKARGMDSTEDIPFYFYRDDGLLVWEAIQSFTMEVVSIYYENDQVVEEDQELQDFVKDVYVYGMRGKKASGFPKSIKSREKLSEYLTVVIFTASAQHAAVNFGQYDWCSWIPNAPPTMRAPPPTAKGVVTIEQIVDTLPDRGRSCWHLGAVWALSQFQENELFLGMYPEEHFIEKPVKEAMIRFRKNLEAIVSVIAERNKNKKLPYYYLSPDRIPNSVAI
Experiment: 5-Lipoxygenase Assay (inhibition of LTC4 and 5-HETE production in MC-9 mast cells)
Assay type: cell-based
Conditions: MC-9 murine mast cells, [14C]-arachidonic acid, A23187
Source text: Use the interleukin-3-dependent murine mast cell clone, MC-9, to test the effects of representative compounds of the invention on lipoxygenase activity. Grow the MC-9 cell line in suspension culture (0.4 to 1.2×10^6 cells/ml) in RPMI 1640 medium (Gibco) with 10% fetal bovine serum (Hyclone) and 2-5% concanavalin-A conditioned supernatant (Musch et. al., (1985) Prostagandins 29, 405-4307). Harvest the cells, wash them twice by centrifugation, and resuspend them in a Ca^++ -free HEPES buffer (25 mM HEPES, 125 mM NaCl, 2.5 mMKCl, 0.7 mM MgCl2 0.5 mM EDTA and 10 mM glucose at pH 7.4).
Preincubate MC-9 cells (0.39 ml at 7.5×10^6 cells/ml) without or with test compound dissolved in dimethylsulfoxide (DMSO) vehicle (to final volume 1 ml) for 4 minutes then incubate for 5 minutes with [^14 C]-arachidonic acid (Amersham, 59 Ci/mole) at a […] final concentration, and A23187 (Calbiochem) at a […] final concentration in […] of water:ethanol (9:1). Stop the reaction by addition of methanol (0.4 ml), and remove cellular debris by centrifugation. Run aliquots ([…]) of the incubations on a Waters two-pump HPLC system fitted with a Waters radial compression column (C18, 10 micron, 8×100 mm, micro-Bondapak) and C18 "Guard Pak". Initially elute the column at 3 ml/min with water:methanol:acetic acid (67:33:0.08) containing 1 mM EDTA adjusted to pH 6.0 with ammonium hydroxide (Pump A). At 4 minutes, establish a linear gradient to reach 100% methanol (Pump B) at 9 minutes. Between 13 and 14 minutes, exchange for the initial eluting solvent and by 19 minutes the column will be reequilibrated for the next sample. Analyze the effluent by a continuous flow radioactivity monitor (model ROMONA-D) interfaced with a Hewlett Packard Lab Automation System for quantitation of radioactive products.
These products are predominantly leukotriene C4 (LTC4), which elutes at 6 minutes, and 5-hydroxeicosatetraenoic acid (5-HETE), which elutes at 11 minutes (Musch et. al., supra). […] Doses in table 1 are 50 μM unless otherwise noted.

With O=C(O)CCC/C=C/c1cccc(SCc2ccccc2)c1 the inhibition at 50 µM was 0%.
O=C(O)CCC/C=C/c1cccc(Oc2ccccc2)c1 showed an inhibition at 50 µM of 74%.
In the case of O=C(O)CCCCCc1cccc(OCc2ccccc2)c1, the inhibition at 50 µM is reported as 80%.
O=C(O)CCC/C=C/c1cccc(OCc2cccnc2)c1 gave an inhibition at 50 µM of 7%.
Compound CCOC(=O)CCC/C=C/c1cccc(OCc2c[nH]cn2)c1 has an inhibition at 50 µM of 89%.
For O=C(O)CCC/C=C/c1cccc(OCC2CCCCO2)c1 (stereo not drawn), the inhibition at 50 µM was 23%.
O=C(O)CCCC#Cc1cccc(OCc2ccccc2)c1 gave an inhibition at 50 µM of 80%.
For O=C(O)CCC/C=C/c1cccc(OCc2ccccc2)c1, the inhibition at 50 µM was 84%.
With O=C(O)CCC/C=C\c1cccc(OCc2ccccc2)c1 the inhibition at 50 µM was 89%.
